# Like-named read-outs stand apart in the source and are kept apart here.
# How the values were obtained:
# [1] = system: PC12 cells; assay: MTT dye reduction assay, Aβ25-35-induced cytotoxicity; type: cell-based, Rat; conditions: 1 mM EGT, added 30 min prior to Aβ25-35; 36 h
# Experimental: (§1) PC12 cells were maintained in DMEM supplemented with 10% heat-inactivated horse serum and 5% fetal bovine serum at 37° C. in a humidified atmosphere of 10% CO2/90% air. All cells were cultured in poly-D-lysine coated culture dishes. The medium was changed every other day, and cells were plated at an appropriate density according to each experimental scale. After 24 h subculture, cells were switched to serum-free N-2 defined medium for treatment. For determination of cell viability, PC12 cells were initially plated at a density of 4×10^4 cells/300 μl in 48-well plates, and the cell viability was determined by the conventional MTT reduction and the lactate dehydrogenase (LDH) release assay as described below.
# (§2) The MTT assay is a sensitive measurement of the normal metabolic status of cells, particularly that of mitochondria, which reflects early cellular redox changes. After incubation, cells were treated with the MTT solution (final concentration, 1 mg/ml) for 2 h. The dark blue formazan crystals formed in intact cells were dissolved in DMSO, and absorbance at 570 nm was measured with a microplate reader. Results were expressed as the percentage (%) of MTT reduction, assuming that the absorbance of control cells was 100%.
# [2] = system: PC12 cells; assay: LDH release assay, Aβ25-35-treated PC12 cells; type: cell-based, Rat; conditions: 25 μM Aβ25-35-treated PC12 cells
# Experimental: as §1
# This assay measures the leakage of the soluble cytoplasmic LDH enzyme into the extracellular medium due to cell lysis. PC12 cells were plated at the same density as for the MTT assay described above. The amount of lactate was measured by monitoring the oxidation of L-lactic acid by NAD^+ in the presence of LDH to pyruvate. The culture media were transferred to 96-well plate and incubated with 1 mg/ml β-NAD^+ in pyruvate substrate solution at 37° C. for 30 min. […] The changes in absorbance were determined at 450 nm using a spectrophotometric microplate reader.
# [3] = system: peroxynitrite; assay: Intracellular peroxynitrite formation (DHR123 fluorescence); type: cell-based, Rat; conditions: 25 μM Aβ25-35, 36 h; L-ergothioneine present in the media
# Experimental: To monitor intracellular formation of peroxynitrite, the fluorescent probe DHR123 was used. DHR123 is lipophilic and readily diffuses across cell membranes. Upon oxidation of DHR to fluorescent rhodamine, one of the two covalent amino groups tautomerizes to a changed imino, effectively trapping rhodamine within cells. DHR is not oxidized by nitric oxide (NO) but peroxynitrite effectively oxidizes it. After treatment with Aβ25-35 (25 μM) for 36 h in the presence or absence of L-ergothioneine, cells (1×10^4 cells/1 ml in 4-well chamber slide) were rinsed with saline A, and 10 μM DHR in saline A containing 5% fetal bovine serum was loaded. After 20 min incubation at 37 C, cells were examined under a confocal microscope equipped with an argon laser (488 nm; 200 mW). To quntitate peroxynitrite generation in response to Aβ25-35, total peroxynitrite production (basal+incease) was divided by basal peroxynitrite generation. Changes in fluorescence intensity are expressed as a percentage of the control.
# [4] = system: PC12 cells; assay: Cell death induced by peroxynitrite generating SIN-1 (MTT); type: cell-based, Rat; conditions: MTT reduction assay
# Experimental: as §2
# [5] = system: PC12 cells; assay: Cell death induced by the NO releasing compound SNP (MTT); type: cell-based, Rat; conditions: MTT reduction assay
# Experimental: as §2
# [6] = system: NF-κB; assay: EMSA, Aβ25-35-induced NF-κB DNA binding activity; type: cell-based, Rat; conditions: 25 μM Aβ25-35 for 1 h; EGT pretreatment (0.5 mM, 1 mM)
# Experimental: To explore the molecular mechanisms underlying the protective effect of L-ergothioneine against Aβ25-35-induced nitrosative cell death, the activation of NF-κB was assessed by EMSA using an oligonucleotide containing a consensus κB binding element. After treatment with 25 μM Aβ25-35 for 1 h in the absence or presence of L-ergothioneine, PC12 cells (1×10^7 cells/7 ml in 100φ dish) were washed with PBS, centrifuged, and resuspended in ice-cold isotonic buffer A [10 mM HEPES, pH 7.9, 1.5 mM MgCl2, 10 mM KCl, 0.5 mM dithiothreitol (DTT) and 0.2 mM phenylmethylsulfonyl fluoride (PMSF)]. Following incubation in an ice bath for 10 min, cells were centrifuged again and resuspended in ice-cold buffer C containing 20 mM HEPES (pH 7.9), 20% glycerol, 420 mM […], 1.5 mM MgCl2, 0.2 mM EDTA, 0.5 mM DTT and 0.2 mM PMSF followed by incubation at 0° C. for 20 min. After vortex-mixing, the resulting suspension was centrifuged, and the supernatant was stored at −70° C. for the NF-κB DNA binding assay. The protein concentration was determined by using the BCA protein assay kit.
# Synthetic double strand oligonucleotide containing the NF-κB binding domain was labeled with [γ-^32P]ATP using T4 polynucleotide kinase and separated from unincorporated [γ-^32P]ATP by gel filtration using a nick spin column (Phamacia Biotech, Bjorkgatan, Sweden). […]
# [7] = system: p65; assay: Immunocytochemistry, nuclear translocation of p65; type: cell-based, Rat; conditions: Aβ25-35 for 1 h
# [8] = Man; cited from earlier work
# [9] = Rat; cited from earlier work
# [10] = Guinea Pig; cited from earlier work
smiles,measurement,setting,value
"C[N+](C)(C)[C@@H](Cc1c[nH]c(=S)[nH]1)C(=O)[O-] [L-ergothioneine, 2-mercaptohistidine trimethylbetaine]",cytotoxic effect of Aβ25-35 (MTT reduction),[1],inhibited
same,LDH release,[2],reduce the LDH release
same,intracellular peroxynitrite formation,[3],significantly reduced
same,cytotoxicity induced by the peroxynitrite releasing compound SIN-1,[4],selectively protected
same,cell death mediated by the NO donor SNP,[5],failed to attenuate
same,NF-κB DNA binding,[6],inhibited
same,Aβ25-35-induced nuclear translocation of p65,[7],inhibitory effect
same,L-Ergothioneine Concentration (mg/100 ml blood),[8],1-4 mg/100 ml blood
same,L-Ergothioneine Concentration (mg/100 ml blood),[9],1-6 mg/100 ml blood
same,L-Ergothioneine Concentration (mg/100 ml blood),[10],1-4 mg/100 ml blood
